This is an account of results in PubChem BioAssay (NCI).

Test systems include NCI-H460 lung; SF-295 CNS; SR leukemia; SK-MEL-28 melanoma; A498 renal; OVCAR-3 ovarian; HOP-92 NSCLC; HCT-15 colon; LOX IMVI melanoma; SNB-19 CNS.
Assay in all cases: DTP human tumour cell line panel, 48 h

“And” between values parts separate entries of the source, which are not always exact repeats. Identical values can stand only once.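 How tested: cells in 96-well plates exposed to compound for 48 hours at five concentrations. GI50 marks 50% less growth. TGI: total growth inhibition.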 Bounds are passed on as bounds.

In general, GI50 refers to the concentration giving 50% growth inhibition. As a reminder, the TGI is the concentration giving total growth inhibition. `CCCCCCCC(=O)SCC/C=C/[C@@H]1CC(=O)NCc2cccc(n2)C2=N[C@@](C)(CS2)C(=O)N[C@@H](C(C)C)C(=O)N1`: the GI50 is 0.532 µM with NCI-H460 lung; 0.804 µM in the assay with SF-295 CNS; 0.498 µM in the assay with SR leukemia; 1.02 µM in the assay with SK-MEL-28 melanoma; 0.394 µM in the assay on A498 renal; 0.402 µM in the assay with OVCAR-3 ovarian. The GI50 was 0.481 µM in the assay on HOP-92 NSCLC, 14.3 µM in the assay with HCT-15 colon, 0.774 µM in the assay with LOX IMVI melanoma and 2.06 µM with SNB-19 CNS. In addition, the total growth inhibition concentration (TGI) was above 33.3 µM in the assay with NCI-H460 lung; 8.59 µM with SF-295 CNS; above 33.3 µM with SR leukemia; above 33.3 µM with SK-MEL-28 melanoma; 6.2 µM in the assay with A498 renal; 9.27 µM in the assay with OVCAR-3 ovarian. The TGI in the assay with HOP-92 NSCLC was 9.31 µM; with HCT-15 colon, above 33.3 µM; in the assay with LOX IMVI melanoma it was 4.01 µM; in the assay on SNB-19 CNS, above 33.3 µM.

For the compound `COc1cc2nc(-c3ccc(C(F)(F)F)cc3)cc(OCCCN3CCC(O)CC3)c2cc1OC`, the GI50 with NCI-H460 lung is 0.835 µM; with SF-295 CNS, 1.61 µM; with SR leukemia it was 0.274 µM; in the assay with SK-MEL-28 melanoma it was 2.38 µM; in the assay with A498 renal it was 2.37 µM; in the assay on OVCAR-3 ovarian, 6.1 µM. Also, the GI50 in the assay with HOP-92 NSCLC was 1.68 µM; in the assay on HCT-15 colon it was 0.667 µM; with LOX IMVI melanoma, 0.19 µM; in the assay with SNB-19 CNS, 10.5 µM. Also, the TGI turned out to be 16 µM in the assay with NCI-H460 lung; 3.83 µM with SF-295 CNS; 16.6 µM in the assay on SR leukemia; 11.5 µM in the assay with SK-MEL-28 melanoma; 10.3 µM in the assay on A498 renal; 22.2 µM in the assay with OVCAR-3 ovarian. Besides, the TGI with HOP-92 NSCLC was 9.64 µM; in the assay on HCT-15 colon, 13.8 µM; in the assay on LOX IMVI melanoma, 0.447 µM; in the assay with SNB-19 CNS it was 28.3 µM.

For `CC(C)c1ccc(C(C)C(=O)N(CC2=C(C(C)c3ccccn3)c3ccccc3C2)C(C)C)cc1` (centres undefined), the GI50 in the assay on NCI-H460 lung was 2.62 µM; in the assay with SF-295 CNS it was 2.3 µM; in the assay with SR leukemia, 2.67 µM; in the assay on SK-MEL-28 melanoma, 10.8 µM; with A498 renal, 0.801 µM; in the assay with OVCAR-3 ovarian it was 3.26 µM. In addition, the GI50 with HOP-92 NSCLC is 1.98 µM; in the assay with HCT-15 colon, 2.84 µM; in the assay with LOX IMVI melanoma, 2.54 µM; in the assay with SNB-19 CNS it was 6.66 µM. Moreover, the TGI stood at 8.35 µM in the assay on NCI-H460 lung; 7.65 µM in the assay with SF-295 CNS; 9.58 µM in the assay on SR leukemia; 66.2 µM in the assay with SK-MEL-28 melanoma; 5.59 µM in the assay with A498 renal; 11.6 µM with OVCAR-3 ovarian. Also, the TGI in the assay with HOP-92 NSCLC was 12.8 µM; in the assay with HCT-15 colon it was 18 µM; with LOX IMVI melanoma it was 8.23 µM; in the assay with SNB-19 CNS, above 100 µM.

On to `NC1CCC(Nc2nc(NCc3ccc(-c4ccco4)nc3)c3ncn(C4CCCC4)c3n2)CC1` (centres undefined), for which the GI50 was 0.0469 µM in the assay on NCI-H460 lung; 0.0751 µM with SF-295 CNS; 0.0349 µM in the assay on SR leukemia; 0.0227 µM with SK-MEL-28 melanoma; 0.0311 µM in the assay on A498 renal; 0.0273 µM with OVCAR-3 ovarian. The GI50 in the assay with HOP-92 NSCLC was 0.0275 µM; in the assay on HCT-15 colon it was 0.298 µM and 1.27 µM; in the assay on SNB-19 CNS, 0.0275 µM. The TGI in the assay on NCI-H460 lung turned out to be 11.3 µM; in the assay on SR leukemia, 0.19 µM; in the assay on SK-MEL-28 melanoma, 0.0686 µM; in the assay on A498 renal, 0.0941 µM; in the assay with OVCAR-3 ovarian, 0.0778 µM; in the assay with HOP-92 NSCLC, 0.0803 µM. Moreover, the figures for the TGI in the assay on HCT-15 colon, with LOX IMVI melanoma and in the assay with SNB-19 CNS were 7.81 µM, 21.9 µM and 12.5 µM, respectively.

`O=C(NCCNc1nccc(-c2c(-c3cccc(O)c3)nc3sccn23)n1)c1ccccc1O`: the GI50 is 4.16 µM in the assay with NCI-H460 lung; 4.18 µM in the assay on SF-295 CNS; 3.71 µM in the assay on SR leukemia; 0.43 µM with SK-MEL-28 melanoma; 7.67 µM in the assay on A498 renal; 5.57 µM with OVCAR-3 ovarian. Moreover, the GI50 is 2.92 µM in the assay on HOP-92 NSCLC, 4.53 µM with HCT-15 colon, 3.03 µM with LOX IMVI melanoma and 12.6 µM in the assay on SNB-19 CNS. Moreover, the TGI is 19.6 µM in the assay on NCI-H460 lung; 26.6 µM in the assay with SF-295 CNS; above 56.7 µM in the assay on SR leukemia; 33.3 µM with SK-MEL-28 melanoma; 28.2 µM in the assay on A498 renal; 47.8 µM in the assay on OVCAR-3 ovarian. In addition, the TGI with HOP-92 NSCLC is 28.6 µM; in the assay with HCT-15 colon, above 46.8 µM; in the assay on LOX IMVI melanoma it was 23.7 µM; in the assay on SNB-19 CNS, above 78.7 µM.

Regarding `O=C1c2ccccc2C(=O)c2sc(Nc3cccc(Cl)c3)nc21`, the TGI with NCI-H460 lung was 4.25 µM; in the assay with SF-295 CNS, 3.09 µM; with SR leukemia, 5.47 µM; in the assay with SK-MEL-28 melanoma, 3.34 µM; in the assay with A498 renal, 12.6 µM; in the assay on OVCAR-3 ovarian, 1.8 µM. The TGI in the assay with HOP-92 NSCLC worked out at 9.1 µM; in the assay on HCT-15 colon, 3.69 µM; in the assay on LOX IMVI melanoma it was 2.28 µM; in the assay on SNB-19 CNS, 4.36 µM. Besides, the GI50 in the assay on HOP-92 NSCLC is 1.82 µM.

Take `COc1cc(C(=O)/C=C/c2sc(Cl)nc2Cl)cc(OC)c1OC`: the GI50 with NCI-H460 lung is 2.29 µM; in the assay with SF-295 CNS, 2.09 µM; in the assay with SR leukemia, 0.384 µM; in the assay on SK-MEL-28 melanoma, 1.78 µM; with A498 renal, 7.62 µM; with OVCAR-3 ovarian, 1.77 µM. Further, the GI50 was 1.6 µM with HOP-92 NSCLC, 1.53 µM in the assay with HCT-15 colon, 1.58 µM in the assay with LOX IMVI melanoma and 1.72 µM in the assay on SNB-19 CNS. The total growth inhibition concentration (TGI) stood at 5.29 µM in the assay on NCI-H460 lung; 4.71 µM in the assay with SF-295 CNS; 3.23 µM in the assay with SR leukemia; 3.27 µM in the assay on SK-MEL-28 melanoma; 20.5 µM with A498 renal; 3.21 µM in the assay with OVCAR-3 ovarian. The TGI with HOP-92 NSCLC was found to be 3.19 µM; with HCT-15 colon, 3 µM; in the assay on LOX IMVI melanoma, 2.97 µM; in the assay on SNB-19 CNS it was 3.18 µM.

`O=C(Nc1ccc(I)cc1)c1cc([N+](=O)[O-])ccc1O`: the GI50 with NCI-H460 lung was 6.42 µM; in the assay on SF-295 CNS, 4.02 µM; with SR leukemia, 6.09 µM; with SK-MEL-28 melanoma, 9.53 µM; in the assay with A498 renal it was 1.45 µM; in the assay on OVCAR-3 ovarian, 3.74 µM. Besides, the GI50 in the assay with HOP-92 NSCLC is 0.709 µM; in the assay with HCT-15 colon, 5.77 µM; with LOX IMVI melanoma, 4.44 µM; in the assay with SNB-19 CNS it was 5.5 µM. For the same compound, the TGI is 56.8 µM in the assay on NCI-H460 lung; 39.8 µM with SF-295 CNS; 46.5 µM in the assay on SR leukemia; 72.3 µM with SK-MEL-28 melanoma; 5.17 µM in the assay with A498 renal; 32.1 µM in the assay with OVCAR-3 ovarian. Moreover, the TGI with HOP-92 NSCLC is 3.99 µM; in the assay on HCT-15 colon it was 38.9 µM; with LOX IMVI melanoma it was 61 µM; in the assay with SNB-19 CNS, above 100 µM.
